In patent US10660877B2 (BRISTOL-MYERS SQUIBB COMPANY, priority 2016, dated 2020):
Where two headings read alike, the source gives them in different places.

Columns and labels:
human TLR9 = human TLR9 (Homo sapiens (Human), UniProt Q9NR96); experiment: TLR9 inhibition reporter assay (HEK-Blue cells, SEAP reporter, ODN2006 stimulation);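 further: compounds tested over 0.05 nM to 50 µM, 22 h incubation, inhibition taken as SEAP signal drop from agonist plus DMSO wells toward a known inhibitor control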
human TLR9, sequence (Q9NR96 26-1032): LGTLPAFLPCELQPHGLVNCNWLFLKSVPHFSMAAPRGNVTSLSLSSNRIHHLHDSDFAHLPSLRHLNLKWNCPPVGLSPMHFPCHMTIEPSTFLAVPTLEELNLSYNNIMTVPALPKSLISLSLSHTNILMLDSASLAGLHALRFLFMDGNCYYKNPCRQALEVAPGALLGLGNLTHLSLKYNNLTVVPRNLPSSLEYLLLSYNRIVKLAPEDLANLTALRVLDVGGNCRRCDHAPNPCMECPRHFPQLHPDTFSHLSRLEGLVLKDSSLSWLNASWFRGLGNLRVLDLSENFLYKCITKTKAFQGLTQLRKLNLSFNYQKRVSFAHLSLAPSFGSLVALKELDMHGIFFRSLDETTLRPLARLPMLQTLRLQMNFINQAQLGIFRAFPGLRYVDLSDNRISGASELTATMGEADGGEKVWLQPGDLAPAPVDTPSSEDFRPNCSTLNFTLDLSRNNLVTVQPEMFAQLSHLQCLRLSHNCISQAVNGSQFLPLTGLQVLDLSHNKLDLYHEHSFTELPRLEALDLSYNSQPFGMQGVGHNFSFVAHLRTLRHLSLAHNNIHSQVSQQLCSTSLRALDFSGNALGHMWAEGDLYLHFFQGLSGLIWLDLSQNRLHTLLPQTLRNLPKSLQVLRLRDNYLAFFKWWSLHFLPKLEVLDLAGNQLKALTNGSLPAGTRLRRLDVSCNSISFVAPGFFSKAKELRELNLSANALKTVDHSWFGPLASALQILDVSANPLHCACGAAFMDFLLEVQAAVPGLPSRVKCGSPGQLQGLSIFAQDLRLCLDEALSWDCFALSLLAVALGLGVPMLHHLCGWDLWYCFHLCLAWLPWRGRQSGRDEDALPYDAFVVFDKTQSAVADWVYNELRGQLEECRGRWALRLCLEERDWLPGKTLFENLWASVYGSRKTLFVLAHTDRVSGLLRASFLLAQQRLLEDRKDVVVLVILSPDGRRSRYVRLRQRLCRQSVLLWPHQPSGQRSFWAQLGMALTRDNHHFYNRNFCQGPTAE

human TLR7 = human TLR7 (Homo sapiens (Human), UniProt Q9NYK1); experiment: TLR7 inhibition reporter assay (HEK-Blue cells, SEAP reporter, gardiquimod stimulation); type: cell-based
human TLR7, sequence (Q9NYK1 27-1049): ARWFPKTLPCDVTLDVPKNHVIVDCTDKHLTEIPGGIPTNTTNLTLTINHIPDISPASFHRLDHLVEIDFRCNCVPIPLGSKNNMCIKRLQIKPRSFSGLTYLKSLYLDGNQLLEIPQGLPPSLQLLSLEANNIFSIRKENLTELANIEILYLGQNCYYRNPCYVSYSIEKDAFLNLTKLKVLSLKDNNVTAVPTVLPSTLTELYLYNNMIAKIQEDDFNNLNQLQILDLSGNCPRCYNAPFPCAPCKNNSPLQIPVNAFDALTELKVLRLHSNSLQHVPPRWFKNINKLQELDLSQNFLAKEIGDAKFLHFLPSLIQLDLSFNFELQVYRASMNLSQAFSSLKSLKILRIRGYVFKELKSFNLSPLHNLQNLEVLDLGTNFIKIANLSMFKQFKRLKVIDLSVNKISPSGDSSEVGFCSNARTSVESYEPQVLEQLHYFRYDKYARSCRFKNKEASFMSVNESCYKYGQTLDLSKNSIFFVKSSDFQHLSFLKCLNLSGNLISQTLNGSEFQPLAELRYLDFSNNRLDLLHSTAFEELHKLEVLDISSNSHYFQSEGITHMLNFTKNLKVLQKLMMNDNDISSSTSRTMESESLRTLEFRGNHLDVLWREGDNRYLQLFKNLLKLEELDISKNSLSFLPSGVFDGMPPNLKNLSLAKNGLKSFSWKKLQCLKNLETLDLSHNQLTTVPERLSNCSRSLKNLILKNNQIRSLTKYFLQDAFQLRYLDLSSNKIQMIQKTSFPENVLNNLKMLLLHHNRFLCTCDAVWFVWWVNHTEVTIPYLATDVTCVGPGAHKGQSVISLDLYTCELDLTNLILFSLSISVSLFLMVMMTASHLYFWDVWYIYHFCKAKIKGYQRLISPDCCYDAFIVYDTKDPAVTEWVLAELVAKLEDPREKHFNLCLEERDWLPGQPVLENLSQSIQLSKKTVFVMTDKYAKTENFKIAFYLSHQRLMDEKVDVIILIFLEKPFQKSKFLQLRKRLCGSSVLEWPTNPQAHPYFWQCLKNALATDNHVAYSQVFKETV

human TLR8 = human TLR8 (Homo sapiens (Human), UniProt Q9NR97); experiment: TLR8 inhibition reporter assay (HEK-Blue cells, SEAP reporter, R848 stimulation);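 further: compounds tested from 0.05 nM to 50 µM, 22 h at 37 °C, SEAP measured with HEK-Blue Detection, inhibition relative to agonist plus DMSO versus a known inhibitor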
human TLR8, sequence (Q9NR97 27-1041): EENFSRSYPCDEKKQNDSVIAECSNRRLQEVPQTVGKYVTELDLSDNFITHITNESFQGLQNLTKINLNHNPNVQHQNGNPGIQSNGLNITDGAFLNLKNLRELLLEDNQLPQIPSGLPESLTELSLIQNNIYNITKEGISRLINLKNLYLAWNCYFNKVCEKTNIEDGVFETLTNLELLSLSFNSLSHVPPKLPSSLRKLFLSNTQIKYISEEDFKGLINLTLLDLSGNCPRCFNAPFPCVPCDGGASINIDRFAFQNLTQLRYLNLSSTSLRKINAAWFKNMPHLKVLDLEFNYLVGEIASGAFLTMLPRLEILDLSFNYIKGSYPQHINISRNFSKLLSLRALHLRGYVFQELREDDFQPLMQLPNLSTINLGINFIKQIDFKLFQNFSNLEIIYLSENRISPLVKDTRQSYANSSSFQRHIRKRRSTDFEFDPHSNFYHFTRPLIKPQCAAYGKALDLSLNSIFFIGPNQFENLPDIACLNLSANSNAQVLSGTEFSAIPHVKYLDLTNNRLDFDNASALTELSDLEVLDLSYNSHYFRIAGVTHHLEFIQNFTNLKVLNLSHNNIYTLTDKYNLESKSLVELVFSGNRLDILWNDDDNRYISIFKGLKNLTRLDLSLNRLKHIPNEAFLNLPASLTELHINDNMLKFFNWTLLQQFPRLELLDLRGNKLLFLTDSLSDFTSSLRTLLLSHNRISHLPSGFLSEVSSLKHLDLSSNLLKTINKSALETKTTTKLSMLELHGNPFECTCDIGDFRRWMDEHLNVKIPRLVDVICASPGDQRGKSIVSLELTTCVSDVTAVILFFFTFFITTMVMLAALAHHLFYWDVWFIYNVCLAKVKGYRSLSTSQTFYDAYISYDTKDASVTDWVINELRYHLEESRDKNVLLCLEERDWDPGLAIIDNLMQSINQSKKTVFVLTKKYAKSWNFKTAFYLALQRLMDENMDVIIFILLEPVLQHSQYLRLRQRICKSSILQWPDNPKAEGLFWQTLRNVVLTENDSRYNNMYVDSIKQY

[1] = read-out: TLR9 IC50, HEK-Blue cells overexpressing human TLR9, ODN2006 5 nM
[2] = HEK-Blue cells overexpressing human TLR7, gardiquimod 7.5 μM
[3] = read-out: TLR8 IC50, HEK-Blue cells overexpressing human TLR8, R848 15.9 μM
[4] = read-out: TLR9 IC50, HEK-Blue cells, ODN2006 5 nM
[5] = HEK-Blue cells, gardiquimod 7.5 μM
[6] = read-out: TLR8 IC50, HEK-Blue cells, R848 15.9 μM

Structure (SMILES) | IC50 (human TLR9; [1]) [nM] | IC50 (human TLR7; [2]) [nM] | IC50 (human TLR8; [3]) [nM] | IC50 (human TLR9; [4]) [nM] | IC50 (human TLR7; [5]) [nM] | IC50 (human TLR8; [6]) [nM] | IC50 (human TLR9; TLR9 IC50, HEK-Blue cells overexpressing human TLR9, ODN2006 5 nM) [nM] | IC50 (human TLR8; TLR8 IC50, HEK-Blue cells overexpressing human TLR8, R848 15.9 μM) [nM]
COc1cc(OC)nc(CN2CCC(c3ccc4[nH]c(-c5cc(C)ncc5F)c(C(C)C)c4c3)CC2)n1 [Example 694, 5-(1-((4,6-dimethoxypyrimidin-2-yl)methyl)piperidin-4-yl)-2-(5-fluoro-2-methylpyridin-4-yl)-3-isopropyl-1H-indole] | 3690 | 20.7 | 7.8 | – | – | – | – | –
Cc1cc(-c2[nH]c3ccc(C4CCNCC4)cc3c2C(C)C)c(C)c(C)n1 [Example 39, 3-isopropyl-5-(piperidin-4-yl)-2-(2,3,6-trimethylpyridin-4-yl)-1H-indole] | 955 | 7.2 | 22.3 | – | – | – | – | –
C=CC(C)(O)CN1CCC(c2ccc3[nH]c(-c4cc(C)nc(C)c4)c(C(C)C)c3c2)CC1 (stereo not drawn) [Example 853, 1-(4-(2-(2,6-dimethylpyridin-4-yl)-3-isopropyl-1H-indol-5-yl)piperidin-1-yl)-2-methylbut-3-en-2-ol] | – | – | – | 293 | 2.3 | 1 | – | –
CC(C)c1c(-c2ccnc(N)c2)[nH]c2ccc(C3CCNCC3)cc12 [Example 8, 4-(3-isopropyl-5-(piperidin-4-yl)-1H-indol-2-yl)pyridin-2-amine] | 160 | 34.4 | 28.8 | – | – | – | – | –
Cc1cc(-c2[nH]c3ccc(C4CCN(C(=O)CN(C)C5COC5)CC4)cc3c2C(C)C)c(F)cn1 [Example 678, 1-(4-(2-(5-fluoro-2-methylpyridin-4-yl)-3-isopropyl-1H-indol-5-yl)piperidin-1-yl)-2-(methyl(oxetan-3-yl)amino)ethan-1-one] | > 50000 | 12.3 | 30.6 | – | – | – | – | –
CCc1c(-c2ccnc(C(=O)OC)c2)[nH]c2ccc(C3CCN(C4CCN(CC(C)C)CC4)CC3)cc12 [Example 762, methyl 4-(3-ethyl-5-(1′-isobutyl-[1,4′-bipiperidin]-4-yl)-1H-indol-2-yl)picolinate] | 223 | 708 | 14.3 | – | – | – | – | –
Cc1cc(-c2[nH]c3ccc(C4CCN(C(=O)[C@@H]5C[C@H](O)CCN5)CC4)cc3c2C(C)C)ccn1 [Example 581, ((2S,4R)-4-hydroxypiperidin-2-yl)(4-(3-isopropyl-2-(2-methylpyridin-4-yl)-1H-indol-5-yl)piperidin-1-yl)methanone] | 967 | 10.6 | 6.9 | – | – | – | – | –
CCc1c(-c2ccnc(OC)c2)[nH]c2ccc(C3CCN(C4CCN(CC5CC5)CC4)CC3)cc12 [Example 789, 5-(1′-(cyclopropylmethyl)-[1,4′-bipiperidin]-4-yl)-3-ethyl-2-(2-methoxypyridin-4-yl)-1H-indole] | 408 | 599 | 269 | – | – | – | – | –
Cc1cc(-c2[nH]c3ccc(C4CCN(C(=O)C5CC(=O)N(C)C5)CC4)cc3c2C(C)C)ccn1 (stereo not drawn) [Example 566, 4-(4-(3-isopropyl-2-(2-methylpyridin-4-yl)-1H-indol-5-yl)piperidine-1-carbonyl)-1-methylpyrrolidin-2-one] | > 50000 | 78.8 | 118 | – | – | – | – | –
COc1ncc(CN2CCC(c3ccc4[nH]c(-c5cc(C)ncc5F)c(C(C)C)c4c3)CC2)cn1 [Example 733, 2-(5-fluoro-2-methylpyridin-4-yl)-3-isopropyl-5-(1-((2-methoxypyrimidin-5-yl)methyl)piperidin-4-yl)-1H-indole] | 1810 | 11.1 | 4.2 | – | – | – | – | –
COC[C@@H]1CCCN1C(=O)CN1CCC(c2ccc3[nH]c(-c4cc(C)nc(C)c4)c(C(C)C)c3c2)CC1 [Example 263, (S)-2-(4-(2-(2,6-dimethylpyridin-4-yl)-3-isopropyl-1H-indol-5-yl)piperidin-1-yl)-1-(2-(methoxymethyl)pyrrolidin-1-yl)ethan-1-one] | 279 | 3.7 | 13.6 | – | – | – | – | –
Cc1cc(-c2[nH]c3ccc(C4CCN(CC(=O)N(CCO)Cc5ccc(F)cc5)CC4)cc3c2C(C)C)cc(C)n1 [Example 300, 2-(4-(2-(2,6-dimethylpyridin-4-yl)-3-isopropyl-1H-indol-5-yl)piperidin-1-yl)-N-(4-fluorobenzyl)-N-(2-hydroxyethyl)acetamide] | 1660 | 28.8 | 70.7 | – | – | – | – | –
Cc1cc(-c2[nH]c3ccc(C4CCN(C(=O)C5(N)COC5)CC4)cc3c2C(C)C)ccn1 [Example 634, (3-aminooxetan-3-yl)(4-(3-isopropyl-2-(2-methylpyridin-4-yl)-1H-indol-5-yl)piperidin-1-yl)methanone] | > 50000 | 73.5 | 223 | – | – | – | – | –
CCS(=O)(=O)N1CCC(c2ccc3[nH]c(-c4ccnc(C)c4)c(C(C)C)c3c2)CC1 [Example 549, 5-(1-(ethylsulfonyl)piperidin-4-yl)-3-isopropyl-2-(2-methylpyridin-4-yl)-1H-indole] | > 50000 | 55.6 | 164 | – | – | – | – | –
CCCCN(CCO)CC(=O)N1CCC(c2ccc3[nH]c(-c4cc(C)nc(C)c4)c(C(C)C)c3c2)CC1 [Example 414, 2-(butyl(2-hydroxyethyl)amino)-1-(4-(2-(2,6-dimethylpyridin-4-yl)-3-isopropyl-1H-indol-5-yl)piperidin-1-yl)ethan-1-one] | 924 | 2.4 | 16.8 | – | – | – | – | –
Cc1cc(-c2[nH]c3ccc(C4CCN(CC(C)(C)O)CC4)cc3c2C(C)C)c(C)cn1 [Example 851, 1-(4-(2-(2,5-dimethylpyridin-4-yl)-3-isopropyl-1H-indol-5-yl)piperidin-1-yl)-2-methylpropan-2-ol] | – | – | – | 1690 | 10.4 | 0.7 | – | –
Cc1cc(-c2[nH]c3ccc(C4CCN(CC(C)(C)O)CC4)cc3c2C2CC2)cc(C)n1 [Example 668, 1-(4-(3-cyclopropyl-2-(2,6-dimethylpyridin-4-yl)-1H-indol-5-yl)piperidin-1-yl)-2-methylpropan-2-ol] | 149 | 14.3 | 7.6 | – | – | – | – | –
CNCC(=O)N1CCC(c2ccc3[nH]c(-c4cc(C)ncc4F)c(C(C)C)c3c2)CC1 [Example 621, 1-(4-(2-(5-fluoro-2-methylpyridin-4-yl)-3-isopropyl-1H-indol-5-yl)piperidin-1-yl)-2-(methylamino)ethan-1-one] | 1590 | 2.4 | 5 | – | – | – | – | –

Second part, the compound after the results:

IC50 (human TLR9; [1]) [nM] | IC50 (human TLR7; [2]) [nM] | IC50 (human TLR8; [3]) [nM] | IC50 (human TLR9; [4]) [nM] | IC50 (human TLR7; [5]) [nM] | IC50 (human TLR8; [6]) [nM] | IC50 (human TLR9; TLR9 IC50, HEK-Blue cells overexpressing human TLR9, ODN2006 5 nM) [nM] | IC50 (human TLR8; TLR8 IC50, HEK-Blue cells overexpressing human TLR8, R848 15.9 μM) [nM] | Structure (SMILES)
155 | 2.5 | 5.8 | – | – | – | – | – | Cc1cc(-c2[nH]c3ccc(C4CCN(CC5CCC5)CC4)cc3c2C(C)C)cc(C)n1 [Example 467, 5-(1-(cyclobutylmethyl)piperidin-4-yl)-2-(2,6-dimethylpyridin-4-yl)-3-isopropyl-1H-indole]
– | – | – | 631 | 4.1 | 3.8 | – | – | COC[C@H](O)CN1CCC(c2ccc3[nH]c(-c4cc(C)nc(C)c4)c(C(C)C)c3c2)CC1 [Example 852, (R)-1-(4-(2-(2,6-dimethylpyridin-4-yl)-3-isopropyl-1H-indol-5-yl)piperidin-1-yl)-3-methoxypropan-2-ol]
909 | 0.6 | 13.3 | – | – | – | – | – | Cc1cc(-c2[nH]c3ccc(C4CCN(C(=O)CNC5CCOC5)CC4)cc3c2C(C)C)cc(C)n1 (stereo not drawn) [Example 387, 1-(4-(2-(2,6-dimethylpyridin-4-yl)-3-isopropyl-1H-indol-5-yl)piperidin-1-yl)-2-((tetrahydrofuran-3-yl)amino)ethan-1-one]
19200 | 4.4 | 76.3 | – | – | – | – | – | CNC(=O)C(=O)N1CCC(c2ccc3[nH]c(-c4cc(C)nc(C)c4)c(C(C)C)c3c2)CC1 [Example 205, 2-(4-(2-(2,6-dimethylpyridin-4-yl)-3-isopropyl-1H-indol-5-yl)piperidin-1-yl)-N-methyl-2-oxoacetamide]
25400 | 22.7 | 211 | – | – | – | – | – | Cc1cc(-c2[nH]c3ccc(C4CCN(C(=O)CN5CCC(F)(F)C5)CC4)cc3c2C(C)C)cc(C)n1 [Example 341, 2-(3,3-difluoropyrrolidin-1-yl)-1-(4-(2-(2,6-dimethylpyridin-4-yl)-3-isopropyl-1H-indol-5-yl)piperidin-1-yl)ethan-1-one]
213 | 0.6 | 9.3 | – | – | – | – | – | Cc1cc(-c2[nH]c3ccc(C4CCN(C(=O)C(C)(C)N)CC4)cc3c2C(C)C)cc(C)n1 [Example 194, 2-amino-1-(4-(2-(2,6-dimethylpyridin-4-yl)-3-isopropyl-1H-indol-5-yl)piperidin-1-yl)-2-methylpropan-1-one]
– | 1.5 | – | – | – | – | 66 | 5.4 | Cc1cc(-c2[nH]c3ccc(C4CCN(CC(=O)N5CC[C@H](O)C5)CC4)cc3c2C(C)C)cc(C)n1 [Example 273, (S)-2-(4-(2-(2,6-dimethylpyridin-4-yl)-3-isopropyl-1H-indol-5-yl)piperidin-1-yl)-1-(3-hydroxypyrrolidin-1-yl)ethan-1-one]
1070 | 8.8 | 34 | – | – | – | – | – | Cc1cc(-c2[nH]c3ccc(C4CCN(C(=O)CN(C)CC(C)C)CC4)cc3c2C(C)C)cc(C)n1 [Example 355, 1-(4-(2-(2,6-dimethylpyridin-4-yl)-3-isopropyl-1H-indol-5-yl)piperidin-1-yl)-2-(isobutyl (methyl)amino)ethan-1-one]
15100 | 7 | 74.3 | – | – | – | – | – | Cc1cc(-c2[nH]c3ccc(C4CCN(C(=O)[C@@H]5CC(F)(F)CN5)CC4)cc3c2C(C)C)cc(C)n1 [Example 189, (S)-(4,4-difluoropyrrolidin-2-yl)(4-(2-(2,6-dimethylpyridin-4-yl)-3-isopropyl-1H-indol-5-yl)piperidin-1-yl) methanone]
